{"source": "patent EP1140026B1", "about": "“BIODEGRADBLE POLYMER ENCAPSULATED SEROTONIN RECEPTOR ANTAGONIST AND METHOD FOR PREPARING THE SAME” (AVENTIS PHARMACEUTICALS INC., priority 1998, dated 2000)", "key": {"[1]": {"system": "prepulse inhibition and latent inhibition", "details": "cited from earlier work"}, "myocardial tissue": {"system": "myocardial tissue", "details": "cited from earlier work"}, "platelets": {"system": "platelets", "details": "aggregation as the result of minor alterations in the endothelial lining of the vasculature; cited from earlier work"}, "[2]": {"system": "MDMA-induced dopamine release in the striatum", "details": "in vivo; cited from earlier work"}, "Male Wistar rats": {"system": "Male Wistar rats", "assay": "Chronic Mild Stress Model of Depression (CMS), consumption of 1% sucrose solution", "assay_type": "in vivo", "text": "CMS uses mild stressors, such as food and water deprivation, cage tilts, changes of cage mates, etc. Over a period of weeks of exposure to the mild stressors, the animals gradually reduce their consumption of a highly preferred sucrose solution which persists (in untreated animals) for several weeks following the cessation of stress. This decreased sensitivity to reward (the sucrose solution) reflects anhedonia, a symptom of a Major Depressive Episode (see for example, Behavioral Pharmacol. 5: Suppl.1, p. 86 (1994) where lithium, carbamazepine and ketoconazole were evaluated in CMS; Psychopharmacology 93:358-364 (1987) where a tricyclic antidepressant was evaluated in CMS; Behavioral Pharmacology: 5:344-350 (1994) where a catechol-O-methyl transferase inhibitor was evaluated in CMS).\nMale Wistar rats were brought into the laboratory two months before the start of the experiment at which time they weighed approximately 300 grams. Except as described below, the animals were singly housed, with food and water freely available, and maintained on a 12 hour light/dark cycle (lights on at 8AM) at a temperature of about 22 °C.\nThe animals were first trained to consume a 1% sucrose solution; training consisted of eight 1 hour baseline tests in which sucrose was presented, in the home cage, following 14 hours food and water deprivation;- intake was measured by weighing pre-weighed bottles containing the sucrose solution at the end of the test. Subsequently, sucrose consumption was monitored, under similar conditions, at weekly intervals throughout the whole experiment.\nOn the basis of their sucrose intakes in the final baseline test, the animals were divided into two matched groups. One group of animals was subjected to a chronic mild stress procedure for a period of 9 consecutive weeks. Each week of stress regime consisted of: two periods of food or water deprivation (12 and 14 hour), two periods of 45 degree cage tilt (12 and 14 hour+), two periods of intermittent overnight illumination (lights on and off every 2 hours), two 14 hour periods of soiled cage (200 ml water in sawdust bedding), two 14 hour periods of paired housing, two 14 hour periods of low intensity stroboscopic illumination (150 flashes/min). Stressors were applied continuously throughout the day and night, and scheduled randomly. Control animals were housed in a separate room and had no contract with the stressed animals. They were deprived of food and water for the 14 hours preceding each sucrose test, but otherwise food and water were freely available in the home cage. On the basis of their sucrose intake scores following 3 weeks of stress, both stressed and control animals were each divided further into matched subgroups (n=8), and for subsequent five weeks they received daily administrations of vehicle (1ml/kg, intraperitoneally (ip)) imipramine (10mg/kg, ip) or MDL 100,907 (0.002, 0.02 and 0.2 mg/kg orally). All drug injections were in a volume of 1ml/kg body weight. Drugs were administered at 10AM and sucrose tests were carried out 24 hours following the last drug treatment. After five weeks, the treatments were terminated and after one week of withdrawal a final sucrose test was carried out. Stress was continued throughout the period of treatment and withdrawal.\nResults were analyzed by multiple analysis of variance, followed by Fisher's LSD test for post hoc comparisons of means."}, "[3]": {"system": "amphetamine-stimulated locomotion", "details": "in vivo; cited from earlier work"}, "[4]": {"system": "A10 vs. A9 neuronal activity", "details": "after chronic administration; cited from earlier work"}}, "data": [{"smiles": "COc1cccc(C(O)C2CCN(CCc3ccc(F)cc3)CC2)c1OC", "note": "(stereo not drawn) [MDL 100,907, (+)-α-(2,3-dimethoxyphenyl)-1-[2-(4-fluorophenyl)ethyl]-4-piperidinemethanol]", "values": [{"measurement": "disrupted PPI (prepulse inhibition)", "setting": "[1]; disruption produced by 5HT agonists in Wistar rats", "value": "restore disrupted PPI"}, {"measurement": "5-HT2 agonist-induced deficits in prepulse inhibition and latent inhibition", "setting": "[1]; rat, in vivo", "value": "reversal"}, {"measurement": "anti-arrhythmic activity, classification system of Vaughan Williams", "setting": "myocardial tissue", "value": "Class III anti-arrhythmic activity"}, {"measurement": "duration of the action potential of myocardial tissue", "setting": "myocardial tissue", "value": "increases the duration of the action potential"}, {"measurement": "rate at which platelets aggregate", "setting": "platelets", "value": "decreases the rate at which platelets aggregate"}, {"measurement": "MDMA-induced dopamine release in the striatum", "setting": "[2]", "value": "reduction"}, {"measurement": "sucrose intake throughout the whole treatment period", "setting": "Male Wistar rats; 0.002mg/kg orally daily, stressed animals", "value": "no significant effect"}, {"measurement": "sucrose consumption after five weeks of treatment", "setting": "Male Wistar rats; 0.002mg/kg orally daily, stressed animals, Week 5", "value": "did not differ from the intakes of the vehicle-treated stressed animals"}, {"measurement": "treatment time after which sucrose intakes were significantly increased from initial scores (Week 0)", "setting": "Male Wistar rats; 0.02 mg/kg orally daily, stressed animals", "value": "two"}, {"measurement": "amount of sucrose solution drunk at the end of treatment period (Week 5)", "setting": "Male Wistar rats; 0.02 mg/kg orally daily, stressed animals, Week 5", "value": "comparable to that of vehicle-treated controls and significantly higher than that of vehicle-treated stressed animals"}, {"measurement": "treatment time after which sucrose intakes were significantly increased from initial scores (Week 0)", "setting": "Male Wistar rats; 0.2 mg/kg orally daily, stressed animals", "value": "three"}, {"measurement": "amount of sucrose solution drunk at the end of treatment period (Week 5)", "setting": "Male Wistar rats; 0.2 mg/kg orally daily, stressed animals, Week 5", "value": "comparable to that of vehicle-treated controls and significantly higher than that of vehicle-treated stressed animals"}, {"measurement": "sucrose intakes one week after withdrawal from the treatment", "setting": "Male Wistar rats; 0.002, 0.02 and 0.2 mg/kg, control and stressed animals, one week after withdrawal", "value": "not significantly changed"}, {"measurement": "sucrose intake in control animals", "setting": "Male Wistar rats; MDL 100,907 0.002, 0.02 and 0.2 mg/kg orally daily, five weeks", "value": "no significant effect"}, {"measurement": "CMS-induced deficit in sucrose intake in stressed animals", "setting": "Male Wistar rats; MDL 100,907 0.002, 0.02 and 0.2 mg/kg orally daily, five weeks, stressed animals", "value": "gradually reversed the CMS-induced deficit in sucrose intake"}, {"measurement": "amphetamine-stimulated locomotion", "setting": "[3]", "value": "blockade"}, {"measurement": "A10 vs. A9 neuronal activity", "setting": "[4]", "value": "selective effects"}]}, {"smiles": "CN(C)CCCN1c2ccccc2CCc2ccccc21", "note": "[Imipramine, reference compound]", "values": [{"measurement": "sucrose intake in control animals", "setting": "Male Wistar rats; imipramine 10mg/kg ip daily, five weeks", "value": "no significant effect"}, {"measurement": "sucrose intake in stressed animals", "setting": "Male Wistar rats; imipramine 10mg/kg ip daily, five weeks, stressed animals", "value": "gradual increase of sucrose intake"}, {"measurement": "sucrose intake after five weeks of treatment, stressed animals versus controls", "setting": "Male Wistar rats; imipramine 10mg/kg ip daily, Week 5", "value": "no significant differences between drug-treated stressed animals and drug- and saline-treated controls"}, {"measurement": "treatment time after which sucrose intake was significantly increased from Week 0 scores", "setting": "Male Wistar rats; imipramine 10mg/kg ip daily, stressed animals", "value": "four"}, {"measurement": "increase of sucrose intake one week after withdrawal from the drug", "setting": "Male Wistar rats; imipramine 10mg/kg ip, stressed animals, one week after withdrawal", "value": "maintained at similar level"}]}]}
